From patent US11528912B2, “Bacillus methylotrophicus strain DR-08 producing natural volatile compound and having antibacterial activity, and use thereof” (GLOBAL AGRO CO., LTD., priority 2016, dated 2022)
Where a name gives a salt, the structure may show the parent alone.

Experiments:
Assay type in all cases: cell-based
Burkholderia glumae = assay: microbe, parasite or virus in culture; conditions: read-out: Minimum inhibitory concentration (MIC)
[1] = system: Clavibacter michiganensis subsp. michiganensis; assay: 96-well microplate bioassay, MIC; conditions: read-out: Minimum inhibitory concentration (MIC)
[2] = system: Xanthomonas oryzae pv. oryzae; assay: microbe, parasite or virus in culture; conditions: read-out: Minimum inhibitory concentration (MIC)
[3] = system: Xanthomonas arboricola pv. pruni; assay: microbe, parasite or virus in culture; conditions: 48 h, read-out: Clear zone
[4] = system: Xanthomonas euvesicatoria; assay: microbe, parasite or virus in culture; conditions: read-out: Minimum inhibitory concentration (MIC)
[5] = system: Xanthomonas axonopodis pv. citri; assay: 96-well microplate bioassay, MIC; conditions: read-out: Minimum inhibitory concentration (MIC)
[6] = system: Acidovorax avenae subsp. cattleyae; assay: 96-well microplate bioassay, MIC; design: key: —: Not active
Protocol: (§1) The butanol extract produced as in Example 3 was dissolved in methanol at a level of 5 mg/mL, and antibacterial activity thereof against various plant pathogens was examined.
(§2) Then, dilution with sterilized water was performed to reach 10^6 CFU/ml, and inoculation into a 96-well plate was performed.
(§3) For the butanol extract of the Bacillus sp. strain DR-08, the butanol extract of the strain DR-08 and streptomycin sulfate as a control agent were made to have the highest concentrations of 500·μg/mL and 100 μg/mL, respectively, in a TSB medium into which 14 various phytopathogenic bacteria including Gram-negative and Gram-positive bacteria had been inoculated. Then, starting from the next well, the concentrations were decreased by 2-fold using an octapipette. The butanol extract of the strain DR-08 was used by being sequentially diluted by 2-fold from 500 μg/mL at the highest down to 15.6 μg/mL, and streptomycin sulfate as a control agent was used by being sequentially diluted by 2-fold from 100 μg/mL at the highest down to 3.1 μg/mL. Standing culture was performed at optimal growth conditions, and then growth of the phytopathogenic bacteria was measured at an absorbance of 595 nm with a microplate reader. Then, a minimum growth inhibitory concentration (MIC) value was determined.

[7] = system: Pectobacterium chrysanthemi; assay: 96-well microplate bioassay, MIC; design: key: —: Not active
Protocol: as §1, §2, §3

[8] = system: Xanthomonas arboricola pv. pruni; assay: 96-well microplate bioassay, MIC; conditions: read-out: Minimum inhibitory concentration (MIC)
Protocol: as §1, §2, §3

[9] = system: Pseudomonas syringae pv. actinidiae; assay: 96-well microplate bioassay, MIC; conditions: read-out: Minimum inhibitory concentration (MIC)
Protocol: as §1, §2, §3

[10] = system: Pectobacterium carotovora subsp. carotovora; assay: 96-well microplate bioassay, MIC; conditions: read-out: Minimum inhibitory concentration (MIC)
Protocol: as §1, §2, §3

[11] = system: Pseudomonas syringae pv. lachrymans; assay: 96-well microplate bioassay, MIC; conditions: read-out: Minimum inhibitory concentration (MIC)
Protocol: as §1, §2, §3

[12] = system: Agrobacterium tumefaciens; assay: 96-well microplate bioassay, MIC; conditions: read-out: Minimum inhibitory concentration (MIC)
Protocol: as §1, §2, §3

Acidovorax konjaci = assay: 96-well microplate bioassay, MIC; conditions: Paracidovorax konjaci; read-out: Minimum inhibitory concentration (MIC)
Protocol: as §1, §2, §3

Ralstonia solanacearum = assay: microbe, parasite or virus in culture; conditions: read-out: Minimum inhibitory concentration (MIC)

SMILES: [H]/N=C(/N)N[C@H]1[C@H](O)[C@@H](O)[C@H](O[C@@H]2O[C@@H](C)[C@](O)(C=O)[C@H]2O[C@@H]2O[C@@H](CO)[C@H](O)[C@@H](O)[C@@H]2NC)[C@@H](N/C(N)=N\[H])[C@@H]1O [Streptomycin sulfate, streptomycin sulfate]
- MIC (Burkholderia glumae): 12.5 µg/mL
- MIC [1]: 25 µg/mL
- MIC [2]: 3.12 µg/mL
- zone of inhibition at 200 ppm [3]: 4 mm
- MIC [4]: 12.5 µg/mL
- MIC [5]: 6.25 µg/mL
- Minimum inhibitory concentration (MIC) [6]: —
- Minimum inhibitory concentration (MIC) [7]: —
- MIC [8]: 12.5 µg/mL
- MIC [9]: 12.5 µg/mL
- MIC [10]: 12.5 µg/mL
- MIC [11]: 50 µg/mL
- MIC [12]: 100 µg/mL
- MIC (Acidovorax konjaci): 6.25 µg/mL
- MIC (Ralstonia solanacearum): 3.12 µg/mL
